Assay results from ChEMBL document CHEMBL4765292, “Flexible diaminodihydrotriazine inhibitors of Plasmodium falciparum dihydrofolate reductase: Binding strengths, modes of binding and their antimalarial activities” (Eur J Med Chem, 2020).

Legend:
[1] = tested on: DHFR (human against Plasmodium falciparum DHFR double mutant); assay: Selectivity index, ratio of Ki for human DHFR expressed in Escherichia coli BL21 to Ki for Plasmodium falciparum DHFR double mutant expressed in Escherichia coli BL21; format: toxicity; settings: read-out: Ratio Ki
[2] = tested on: Vero; assay: Cytotoxicity against African green monkey Vero cells assessed as reduction in cell viability incubated for 72 hrs by SRB assay; format: cell-based; settings: Chlorocebus sabaeus
[3] = tested on: DHFR (human against Plasmodium falciparum DHFR N51I/C59R/S108N/I164L mutant); assay: Selectivity index, ratio of Ki for human DHFR expressed in Escherichia coli BL21 to Ki for Plasmodium falciparum DHFR N51I/C59R/S108N/I164L mutant expressed in Escherichia coli BL21; format: toxicity; settings: read-out: Ratio Ki
[4] = Inhibition of Plasmodium falciparum DHFR expressed in Escherichia coli BL21 using DHF as substrate by spectrophotometric analysis
[5] = Therapeutic index, ratio of IC50 for African green monkey Vero cells to IC50 for Plasmodium falciparum TM4/8.2; format: toxicity; settings: against Plasmodium falciparum TM4/8.2, read-out: Ratio IC50
[6] = Inhibition of Plasmodium falciparum DHFR A16V/S108T mutant expressed in Escherichia coli BL21 using DHF as substrate by spectrophotometric analysis
[7] = Inhibition of Plasmodium falciparum DHFR C59R/S108N/I164L mutant expressed in Escherichia coli BL21 using DHF as substrate by spectrophotometric analysis
[8] = Therapeutic index, ratio of IC50 for African green monkey Vero cells to IC50 for Plasmodium falciparum V1/S harboring DHFR N51I/C59R/S108N/I164L mutant; format: toxicity; settings: read-out: Ratio IC50
[9] = Inhibition of Plasmodium falciparum DHFR […] mutant expressed in Escherichia coli BL21 using DHF as substrate by spectrophotometric analysis
[10] = Therapeutic index, ratio of IC50 for African green monkey Vero cells to IC50 for Plasmodium falciparum K1CB1 harboring DHFR […] mutant; format: toxicity; settings: read-out: Ratio IC50
[11] = tested on: Plasmodium falciparum; assay: Antimalarial activity against Plasmodium falciparum W2 harboring DHFR N51I/C59R/S108N mutant infected in human erythrocytes assessed as reduction in [3H]-hypoxanthine incorporation pretreated for 20 hrs followed by [3H]-hypoxanthine addition measured after 20 hrs by radioactivity method; format: functional, organism-based; settings: W2, Erythrocyte
[12] = tested on: Plasmodium falciparum; assay: Antimalarial activity against Plasmodium falciparum T9/94 RC17 harboring DHFR A16V/S108T mutant infected in human erythrocytes assessed as reduction in [3H]-hypoxanthine incorporation pretreated for 20 hrs followed by [3H]-hypoxanthine addition measured after 20 hrs by radioactivity method; format: functional, organism-based; settings: T9/94 RC17, Erythrocyte
[13] = tested on: Plasmodium falciparum; assay: Antimalarial activity against Plasmodium falciparum V1/S harboring DHFR N51I/C59R/S108N/I164L mutant infected in human erythrocytes assessed as reduction in [3H]-hypoxanthine incorporation pretreated for 20 hrs followed by [3H]-hypoxanthine addition measured after 20 hrs by radioactivity method; format: functional, organism-based; settings: Erythrocyte
[14] = Inhibition of Plasmodium falciparum DHFR N51I/C59R/S108N/I164L mutant expressed in Escherichia coli BL21 using DHF as substrate by spectrophotometric analysis
[15] = tested on: Plasmodium falciparum; assay: Antimalarial activity against Plasmodium falciparum K1CB1 harboring DHFR […] mutant infected in human erythrocytes assessed as reduction in [3H]-hypoxanthine incorporation pretreated for 20 hrs followed by [3H]-hypoxanthine addition measured after 20 hrs by radioactivity method; format: functional, organism-based; settings: K1CB1, Erythrocyte
[16] = tested on: Plasmodium falciparum; assay: Antimalarial activity against Plasmodium falciparum CsI-2 harboring DHFR C59R/S108N/I164L mutant infected in human erythrocytes assessed as reduction in [3H]-hypoxanthine incorporation pretreated for 20 hrs followed by [3H]-hypoxanthine addition measured after 20 hrs by radioactivity method; format: functional, organism-based; settings: CsI-2, Erythrocyte
[17] = tested on: Plasmodium falciparum; assay: Antimalarial activity against Plasmodium falciparum TM4/8.2 infected in human erythrocytes assessed as reduction in [3H]-hypoxanthine incorporation pretreated for 20 hrs followed by [3H]-hypoxanthine addition measured after 20 hrs by radioactivity method; format: functional, organism-based
[18] = Inhibition of Plasmodium falciparum DHFR N51I/C59R/S108N mutant expressed in Escherichia coli BL21 using DHF as substrate by spectrophotometric analysis
[19] = tested on: DHFR (human against Plasmodium falciparum DHFR); assay: Selectivity index, ratio of Ki for human DHFR expressed in Escherichia coli BL21 to Ki for Plasmodium falciparum DHFR expressed in Escherichia coli BL21; format: toxicity; settings: read-out: Ratio Ki
[20] = Inhibition of Plasmodium falciparum DHFR using DHF as substrate by spectrophotometric analysis

| Structure (SMILES) | selectivity ratio [1] | IC50 [2] [nM] | selectivity ratio [3] | Ki [4] [nM] | selectivity ratio [5] | Ki [6] [nM] | Ki [7] [nM] | selectivity ratio [8] | Ki [9] [nM] | selectivity ratio [10] | IC50 [11] [nM] | IC50 [12] [nM] | IC50 [13] [nM] | Ki [14] [nM] | IC50 [15] [nM] | IC50 [16] [nM] | IC50 [17] [nM] | Ki [18] [nM] | selectivity ratio [19] | Ki [20] [nM] |
| --- | --- | --- | --- | --- | --- | --- | --- | --- | --- | --- | --- | --- | --- | --- | --- | --- | --- | --- | --- | --- |
| CC1(C)N=C(N)N=C(N)N1OCCCOc1cccc(Cl)c1Cl | 24 | 9710 | 21 | 0.6 | 27700 | 1.3 | 1.4 | 1870 | 1 | 5110 | 0.82 | 0.21 | 5.2 | 1.1 | 1.9 | 3.9 | 0.35 | 0.7 | 39 | – |
| CC1(C)N=C(N)N=C(N)N1OCCCOc1cc(Cl)c(Cl)cc1Cl | 24 | > 1000 | 8 | – | > 1750 | – | 0.4 | > 56 | 0.6 | > 435 | 4.2 | 0.34 | 18 | 1.9 | 2.3 | 3.8 | 0.57 | 1.1 | 29 | 0.5 |
| CC1(C)N=C(N)N=C(N)N1OCCCCc1ccccc1 | 60 | 27100 | 11 | 0.3 | 821 | 2 | 2.2 | 46 | 0.7 | 874 | 44 | 3.7 | 590 | 3.7 | 31 | 46 | 33 | 0.7 | 139 | – |
| CC1N=C(N)N=C(N)N1OCCCOc1cc(Cl)c(Cl)cc1Cl (configuration not stated) | 47 | 46000 | 40 | – | 20000 | – | 0.5 | 153 | 0.5 | 2420 | 35 | 0.32 | 300 | 0.6 | 19 | 48 | 2.3 | 0.4 | 79 | 0.3 |
| CC1(C)N=C(N)N=C(N)N1OCCCOc1ccccc1 | 36 | 33300 | 19 | 0.7 | 90000 | 1.5 | 1.4 | 628 | 1 | 6170 | 5.9 | 0.59 | 53 | 1.9 | 5.4 | 32 | 0.37 | 0.8 | 52 | – |
| CC1(C)N=C(N)N=C(N)N1OCCCNc1ccc(Cl)c(Cl)c1 | 61 | > 50000 | 9 | 1.2 | > 11100 | 3.7 | 1.4 | > 68 | 0.8 | > 11100 | 58 | 17 | 740 | 5.1 | 45 | 390 | 4.5 | 0.9 | 40 | – |
| CC1(C)N=C(N)N=C(N)N1OCCCSc1ccc(Cl)cc1 | 26 | 18100 | 30 | 0.6 | 30200 | 3.1 | 0.9 | 70 | 0.9 | 2970 | 5.4 | 1.8 | 260 | 0.8 | 6.1 | 37 | 0.6 | 0.7 | 40 | – |
| CN(CCCON1C(N)=NC(N)=NC1(C)C)c1ccc(Cl)cc1 | 24 | 45000 | 10 | 1.5 | 26500 | 3.4 | 2 | 107 | 1.4 | 918 | 24 | 3.2 | 420 | 3.4 | 49 | 170 | 1.7 | – | 22 | – |
| CC1(C)N=C(N)N=C(N)N1OCCCSc1cccc(Cl)c1 | 30 | 3900 | 24 | 0.7 | 3000 | 3.4 | 0.9 | 51 | 0.8 | 709 | 8.1 | 2.4 | 77 | 1 | 5.5 | 42 | 1.3 | – | 34 | – |
| CC1(C)N=C(N)N=C(N)N1OCCCSc1ccccc1Cl | 19 | 14600 | 21 | 0.6 | 30400 | 1.9 | 0.9 | 332 | 1.1 | 4060 | 3.3 | 0.73 | 44 | 1 | 3.6 | 4.4 | 0.48 | 0.7 | 35 | – |
| NC1=NC(c2ccccc2)N(OCCCOc2cc(Cl)c(Cl)cc2Cl)C(N)=N1 (configuration not stated) | 76 | 25100 | 207 | – | 4920 | – | 0.3 | 52 | 1.9 | 570 | 60 | 3.2 | 480 | 0.7 | 44 | 340 | 5.1 | 1.6 | 242 | 0.6 |
| CC1(C)NC(N)=NC(=N)N1OCCCSc1ccccc1 | 36 | 63800 | 58 | 0.5 | 123000 | 1 | 0.4 | 997 | 0.8 | 13300 | 9.9 | 0.58 | 64 | – | 4.8 | 39 | 0.52 | 0.3 | 58 | – |
